Assay results as given in patent US8476253B2, “Amide derivative” (Daiichi Sankyo Company, Limited, priority 2009, dated 2013).
Counter-ions that a name gives are not always drawn. Like-named read-outs stand apart in the source and are kept apart here.

How the values were obtained:
substance P receptor = molecular target: T1, substance P receptor (Cavia porcellus, UniProt P30547); experiment: Test for binding to guinea-pig substance P receptor (crude lung membrane sample); conditions: crude guinea-pig lung membrane sample, [3H]substance P; Ki from IC50 and Kd; read-out: Ki
T1 construct: A preparation of a crude lung membrane sample was prepared; from tissue; host or cells: guinea-pig lung (crude membrane sample)
Experimental: A preparation of a crude lung membrane sample was prepared, and a test for binding of a test substance to the sample was performed according to the method described in EP0336230A2.
The binding effect of the test substance to a substance P receptor was calculated as an affinity (Ki) of the test substance for the substance P receptor from a 50% binding concentration (IC50) and an affinity (Kd) of [^3H]substance P for the substance P receptor.

human M3 receptor = molecular target: T2, human M3 receptor (Homo sapiens, UniProt P20309); experiment: Test for binding to human M3 receptor
T2 construct: expressed in transfected cells; host or cells: CHO cells
In short: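 CHO-cell crude membranes expressing human M3 were incubated with [N-methyl-3H]-(−)-scopolamine methyl chloride in 50 mM Tris-HCl, 0.5 mM EDTA, pH 7.4, for 60 min at room temperature. Bound ligand was collected on PEI-pretreated glass-fibre filters and counted by liquid scintillation. Ki was calculated from IC50 and the radioligand Kd.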

neurokinin NK2 receptor = molecular target: T3, neurokinin NK2 receptor (Cavia porcellus, UniProt Q64077); experiment: Effect of suppressing neurokinin A-induced airway contraction (in vivo, intratracheal administration); parameters: species or system guinea pig; conditions: guinea pig; guinea pigs, intratracheal administration 60 minutes before 4 μg/kg i.v. NKA; AUC of increase in airway pressure over 10 minutes; read-out: ID50 (the source's name)
T3 construct: Using healthy guinea pigs (body weight, 350 to 550 g; Hartley male guinea pigs); from tissue; host or cells: live anaesthetised Hartley male guinea pigs (airway, in vivo)
T3 sequence (Q64077 1-402): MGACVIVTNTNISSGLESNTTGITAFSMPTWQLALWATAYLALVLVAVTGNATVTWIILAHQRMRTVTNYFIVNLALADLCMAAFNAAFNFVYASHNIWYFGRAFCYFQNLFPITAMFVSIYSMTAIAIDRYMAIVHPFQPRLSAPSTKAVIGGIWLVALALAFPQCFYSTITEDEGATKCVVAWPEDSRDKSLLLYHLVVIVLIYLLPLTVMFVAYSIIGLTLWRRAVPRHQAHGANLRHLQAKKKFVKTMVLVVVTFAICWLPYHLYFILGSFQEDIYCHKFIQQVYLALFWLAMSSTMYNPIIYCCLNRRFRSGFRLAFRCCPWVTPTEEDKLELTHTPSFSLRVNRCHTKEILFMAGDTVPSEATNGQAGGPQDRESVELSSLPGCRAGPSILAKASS
Experimental: Using healthy guinea pigs (body weight, 350 to 550 g; Hartley male guinea pigs), the effect of suppressing airway contraction induced by neurokinin A (NKA), which is an NK2 receptor agonist, was examined by a modified method of Konzett-Roessler (Naunyn-Schmiedebergs Arch. Exp. Pathol. Pharmakol. 195, 71 [1940]) using airway pressure as an indicator.
A tracheal cannula and a venous cannula were attached to a guinea pig anesthetized with pentobarbital (50 mg/mL solution, 0.40 to 0.50 mL/body, subcutaneous administration). An arterial cannula filled with heparin-containing physiological saline (100 U/mL) was further attached, and blood pressure and heart rate were monitored via an amplifier and an instantaneous heart rate meter. Subsequently, gallamine (20 mg/body, intravenous administration) was administered to terminate spontaneous breathing, and 10 mL/kg of positive pressure breathing (Ugo-Basile Biological Research Apparatus, Cat. No. 7025) was rapidly performed at 60 times/min. The airway pressure during artificial breathing was detected with a pressure transducer (TP-200T or TP-400T; Nihon Kohden Corporation) attached to a side branch of the tracheal cannula, amplified (AP-601G; Nihon Kohden Corporation), and recorded in a recorder. After the airway pressure, blood pressure, and heart rate were stabilized, 4 μg/kg of NKA was intravenously administered from the venous cannula to induce airway contraction, and the airway pressure was measured for the following 10 minutes.
The test substance was dissolved in a 5% glucose solution, and a 0.5 mL/kg solution was intratracheally administered with an intratracheal administration apparatus (model 1A-1B; Penn-Century, Inc.) 60 minutes before stimulation with NKA.
The AUC of increase in the airway pressure over 10 minutes after administration of NKA was determined as the intensity of NKA-induced airway contraction and calculated as an ID50 value from the inhibition rate based on the value of the control group (5% glucose solution intratracheal administration group).

T1 sequence (P30547 whole entry): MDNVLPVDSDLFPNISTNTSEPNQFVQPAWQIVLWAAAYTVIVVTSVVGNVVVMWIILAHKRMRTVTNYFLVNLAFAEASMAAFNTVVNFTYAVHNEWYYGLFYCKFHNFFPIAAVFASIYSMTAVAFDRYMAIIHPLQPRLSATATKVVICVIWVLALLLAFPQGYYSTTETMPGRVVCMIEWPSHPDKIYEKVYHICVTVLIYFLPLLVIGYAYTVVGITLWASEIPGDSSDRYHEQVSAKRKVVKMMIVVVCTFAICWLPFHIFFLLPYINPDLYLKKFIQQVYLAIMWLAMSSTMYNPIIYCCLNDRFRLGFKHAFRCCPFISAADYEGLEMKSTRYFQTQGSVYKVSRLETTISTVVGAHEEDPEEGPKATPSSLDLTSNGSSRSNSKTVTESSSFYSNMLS
T2 sequence (P20309 whole entry): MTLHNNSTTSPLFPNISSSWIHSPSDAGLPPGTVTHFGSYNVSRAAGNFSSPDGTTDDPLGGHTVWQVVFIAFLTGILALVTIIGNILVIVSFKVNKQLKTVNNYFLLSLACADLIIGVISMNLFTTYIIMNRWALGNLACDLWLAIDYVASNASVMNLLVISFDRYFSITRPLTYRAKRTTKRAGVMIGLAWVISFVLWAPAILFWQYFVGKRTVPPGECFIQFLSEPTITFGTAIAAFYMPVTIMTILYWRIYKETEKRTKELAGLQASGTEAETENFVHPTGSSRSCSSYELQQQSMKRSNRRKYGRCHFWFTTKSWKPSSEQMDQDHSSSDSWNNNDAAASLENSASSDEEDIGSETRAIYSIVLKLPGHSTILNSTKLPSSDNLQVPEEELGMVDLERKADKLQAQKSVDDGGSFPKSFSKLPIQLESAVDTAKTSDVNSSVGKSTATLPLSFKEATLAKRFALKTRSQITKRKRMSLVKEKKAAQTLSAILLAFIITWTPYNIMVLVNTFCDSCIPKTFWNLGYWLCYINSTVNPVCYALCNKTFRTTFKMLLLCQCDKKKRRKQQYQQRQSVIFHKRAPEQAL

Compound `Cc1nc(NCCCCCC(=O)N(C)CCN2CCC(OC(=O)Nc3ccccc3-c3ccccc3)CC2)sc1C(=O)N(C)CCCN(C)C(=O)CO[C@H]1Cc2ccccc2C12CCN(CC[C@@]1(c3ccc(F)cc3)CN(C(=O)c3cc(C(F)(F)F)cc(C(F)(F)F)c3)CO1)CC2` [Example 105, 1-(2-{[6-({5-[{3-[({[(2S)-1′-{2-[(5R)-3-[3,5-Bis(trifluoromethyl)benzoyl]-5-(4-fluorophenyl)-1,3-oxazolidin-5-yl]ethyl}-2,3-dihydrospiro[indene-1,4′-piperidin]-2-yl]oxy}acetyl)(methyl)amino]propyl}(methyl)carbamoyl]-4-methyl-1,3-thiazol-2-yl}amino)hexanoyl](methyl)amino}ethyl)piperidin-4-yl biphenyl-2-ylcarbamate trihydrochloride] has a Ki (substance P receptor) of 2.1 nM, a Ki (human M3 receptor) of 1.4 nM and an ED50 (neurokinin NK2 receptor) of 0.0136 mg/kg.

Compound `CN(CCN1CCC(OC(=O)Nc2ccccc2-c2ccccc2)CC1)C(=O)CCCCCCN(C)c1ccc(C(=O)N(C)CCCN(C)C(=O)CO[C@H]2Cc3ccccc3C23CCN(CC[C@@]2(c4ccc(F)cc4)CN(C(=O)c4cc(C(F)(F)F)cc(C(F)(F)F)c4)CO2)CC3)cc1` [Example 40, 1-{2-[{7-[{4-[{3-[({[(2S)-1′-{2-[(5R)-3-[3,5-Bis(trifluoromethyl)benzoyl]-5-(4-fluorophenyl)-1,3-oxazolidin-5-yl]ethyl}-2,3-dihydrospiro[indene-1,4′-piperidin]-2-yl]oxy}acetyl)(methyl)amino]propyl}(methyl)carbamoyl]phenyl}(methyl)amino]heptanoyl}(methyl)amino]ethyl}piperidin-4-yl biphenyl-2-ylcarbamate trihydrochloride] has a Ki (substance P receptor) of 1.6 nM, a Ki (human M3 receptor) of 2 nM and an ED50 (neurokinin NK2 receptor) of 0.0573 mg/kg.

`CN(CCN1CCC(OC(=O)Nc2ccccc2-c2ccccc2)CC1)C(=O)CCCCCNc1ccc(C(=O)N2CCCN(C(=O)CO[C@H]3Cc4ccccc4C34CCN(CC[C@@]3(c5ccc(F)cc5)CN(C(=O)c5cc(C(F)(F)F)cc(C(F)(F)F)c5)CO3)CC4)CC2)cc1` [Example 110, 1-{2-[{6-[(4-{[4-({[(2S)-1′-{2-[(5R)-3-[3,5-Bis(trifluoromethyl)benzoyl]-5-(4-fluorophenyl)-1,3-oxazolidin-5-yl)ethyl}-2,3-dihydrospiro[indene-1,4′-piperidin]-2-yl]oxy}acetyl)-1,4-diazepan-1-yl]carbonyl}phenyl)amino]hexanoyl}(methyl)amino]ethyl}piperidin-4-yl biphenyl-2-ylcarbamate trihydrochloride] gave a Ki (substance P receptor) of 1.7 nM, a Ki (human M3 receptor) of 0.93 nM and an ED50 (neurokinin NK2 receptor) of 0.0135 mg/kg.

For `CN(CCN1CCC(OC(=O)Nc2ccccc2-c2ccccc2)CC1)C(=O)CCCNc1ccc(C(=O)N(C)CCCN(C)C(=O)CO[C@H]2Cc3ccccc3C23CCN(CC[C@@]2(c4ccc(F)cc4)CN(C(=O)c4cc(C(F)(F)F)cc(C(F)(F)F)c4)CO2)CC3)cc1` [Example 34, 1-(2-{[4-({4-[{3-[({[(2S)-1′-{2-[(5R)-3-[3,5-Bis(trifluoromethyl)benzoyl]-5-(4-fluorophenyl)-1,3-oxazolidin-5-yl]ethyl}-2,3-dihydrospiro[indene-1,4′-piperidin]-2-yl]oxy}acetyl)(methyl)amino]propyl}(methyl)carbamoyl]phenyl}amino)butanoyl](methyl)amino}ethyl)piperidin-4-yl biphenyl-2-ylcarbamate trihydrochloride], the Ki (substance P receptor) was 1 nM, the Ki (human M3 receptor) was 1.5 nM and the ED50 (neurokinin NK2 receptor) was 0.03 mg/kg.

`CN(CCN1CCC(OC(=O)Nc2ccccc2-c2ccccc2)CC1)C(=O)CCCCNc1ccc(C(=O)N(C)CCCN(C)C(=O)CO[C@H]2Cc3ccccc3C23CCN(CC[C@@]2(c4ccc(F)cc4)CN(C(=O)c4cc(C(F)(F)F)cc(C(F)(F)F)c4)CO2)CC3)cc1` [Example 32, 1-(2-{[5-({4-[{3-[({[(2S)-1′-{2-[(5R)-3-[3,5-Bis(trifluoromethyl)benzoyl]-5-(4-fluorophenyl)-1,3-oxazolidin-5-yl]ethyl}-2,3-dihydrospiro[indene-1,4′-piperidin]-2-yl]oxy}acetyl)(methyl)amino]propyl}(methyl)carbamoyl]phenyl}amino)pentanoyl](methyl)amino}ethyl)piperidin-4-yl biphenyl-2-ylcarbamate trihydrochloride] showed a Ki (substance P receptor) of 1.3 nM, a Ki (human M3 receptor) of 1.1 nM and an ED50 (neurokinin NK2 receptor) of 0.0356 mg/kg.

Work on `CN(CCN1CCC(OC(=O)Nc2ccccc2-c2ccccc2)CC1)C(=O)CCCCCNc1ccc(N(C)C(=O)CCCN(C)C(=O)CO[C@H]2Cc3ccccc3C23CCN(CC[C@@]2(c4ccc(F)cc4)CN(C(=O)c4cc(C(F)(F)F)cc(C(F)(F)F)c4)CO2)CC3)cc1` [Example 84, 1-(2-{[6-({4-[{-4-[({[(2S)-1′-{2-[(5R)-3-[3,5-Bis(trifluoromethyl)benzoyl]-5-(4-fluorophenyl)-1,3-oxazolidin-5-yl]ethyl}-2,3-dihydrospiro[indene-1,4′-piperidin]-2-yl]oxy}acetyl)(methyl)amino]butanoyl}(methyl)amino]phenyl}amino)hexanoyl](methyl)amino}ethyl)piperidin-4-yl biphenyl-2-ylcarbamate trihydrochloride] yielded a Ki (substance P receptor) of 2.7 nM, a Ki (human M3 receptor) of 1.2 nM and an ED50 (neurokinin NK2 receptor) of 0.0221 mg/kg.

In the case of `CN(CCN1CCC(OC(=O)Nc2ccccc2-c2ccccc2)CC1)C(=O)CCCCCNc1ccc(C(=O)N(C)CCCN(C)C(=O)CO[C@H]2Cc3ccccc3C23CCN(CC[C@@]2(c4ccc(F)cc4)CN(C(=O)c4cc(C(F)(F)F)cc(C(F)(F)F)c4)CO2)CC3)cc1` [Example 72, 1-(2-{[6-({4-[{3-[({[(2S)-1′-{2-[(5R)-3-[3,5-Bis(trifluoromethyl)benzoyl]-5-(4-fluorophenyl)-1,3-oxazolidin-5-yl]ethyl}-2,3-dihydrospiro[indene-1,4′-piperidin]-2-yl]oxy}acetyl)(methyl)amino]propyl}(methyl)carbamoyl]phenyl}amino)hexanoyl](methyl)amino}ethyl)piperidin-4-yl biphenyl-2-ylcarbamate], the Ki (substance P receptor) is reported as 1.4 nM, the Ki (human M3 receptor; CHO cells expressing human M3 receptor, [N-methyl-3H]-(-)-Scopolamine methyl chloride 0.5 nM, Ki from IC50 and Kd, read-out: Ki) is reported as 1.6 nM and the ED50 (neurokinin NK2 receptor) is reported as 0.0151 mg/kg.

With `Cc1cc(NCCCCCC(=O)N(C)CCN2CCC(OC(=O)Nc3ccccc3-c3ccccc3)CC2)ccc1C(=O)N(C)CCCN(C)C(=O)CO[C@H]1Cc2ccccc2C12CCN(CC[C@@]1(c3ccc(F)cc3)CN(C(=O)c3cc(C(F)(F)F)cc(C(F)(F)F)c3)CO1)CC2` [Example 18, 1-(2-{[6-({4-[{3-[({[(2S)-1′-{2-[(5R)-3-[3,5-Bis(trifluoromethyl)benzoyl]-5-(4-fluorophenyl)-1,3-oxazolidin-5-yl]ethyl}-2,3-dihydrospiro[indene-1,4′-piperidin]-2-yl]oxy}acetyl)(methyl)amino]propyl}(methyl)carbamoyl]-3-methylphenyl}amino)hexanoyl](methyl)amino}ethyl)piperidin-4-yl biphenyl-2-ylcarbamate trihydrochloride] the Ki (substance P receptor) was 1.8 nM, the Ki (human M3 receptor) was 1.2 nM and the ED50 (neurokinin NK2 receptor) was 0.0453 mg/kg.
